We go through 3 compounds from patent US9249345B2, “Concentrate for medical solutions, production thereof and use thereof in dialysis” (FRESENIUS MEDICAL CARE DEUTSCHLAND GMBH, priority 2010, dated 2016).

What all share (type): physicochemical
The nature of series [1]: Storage of MgCl2×6H2O in gas-permeable concentrate container in climate chamber, Example 5. To be noted: 40° C., 75% relative humidity, 6 months. On the procedure:
MgCl2×6H2O was stored in the climate chamber at 40° C. and 75% relative humidity in a gas-permeable concentrate container.

Series [2] in a line: Water uptake into concentrate container without gas barrier, Example 6. The following applies: 40° C., 75% relative humidity; for water uptake into the concentrate container (water content in percent by weight): after about 26 weeks; for water uptake: period of 6 months. On the procedure:
The water uptake into a concentrate container without a gas barrier, comprising MgCl2×6H2O or alkaline magnesium carbonate, 4MgCO3×Mg(OH)2×5H2O respectively, was compared. The concentrate containers were each exposed in the climate chamber to 40° C. and 75% relative humidity for several weeks. […] The time in weeks is plotted on the abscissa. The water content in percent by weight is plotted on the ordinate.

Series [3] can be described thus: Caking behaviour of concentrates in containers stored in climate chamber, Examples 2-4. The following applies: Example 4; 40° C., 75% relative humidity, 6 months. The text has this: The container comprised of film material without appreciable gas-barrier properties is depicted on the left of FIG. 1. […] The container shown on the right of FIG. 1 comprised the same materials. Additionally, said film comprised a gas-barrier layer of silicon oxide. The gas permeability of said film was below 20 cm^3/(m^2·d·bar) for CO2, as measured in accordance with DIN 53380—part 4. […] 1.
The stability of a concentrate comprised of components according to the invention versus conventional components was tested. […] It was assumed that the crystal water of the glucose in conjunction with sodium chloride caused caking.

As to `O.O.O.O.O.O.[Cl-].[Cl-].[Mg+2]` [MgCl2×6H2O, magnesium chloride with crystal water, MgCl2×6H2O], in series [1], the “physical state after storage” value is reported as “liquefied”. In addition, in series [2], the “water uptake into the concentrate container (water content in percent by weight)” value is ~24% and the water uptake result is “significant water uptake”.
`OC[C@H]1OC(O)[C@H](O)[C@@H](O)[C@@H]1O` (stereo partly drawn) [anhydrous glucose]: the caking entry in series [3] was “does not promote caking”.
With “alkaline magnesium carbonate, 4MgCO3×Mg(OH)2×5H2O”, in series [2], the “water uptake into the concentrate container (water content in percent by weight)” value is recorded as “no water uptake” and the water uptake entry is given as “did not absorb any water”.
